Experimental data: US20230020329A1, “Annelated 9-hydroxy-1,8-dioxo-1,3,4,8-tetrahydro-2H-pyrido[1,2-a]pyrazine-7-carboxamides as HIV integrase inhibitors, methods of preparation and application thereof” (priority 2019, published 2023)

Test system: HIV-1 (IIIB strain)
Test: Anti-HIV cytoprotection assay (XTT), HIV-1 IIIB in CEM-SS cells
Assay type: cell-based
Conditions: Human immunodeficiency virus 1, IIIB, CEM-SS, CEM-SS cell line; read-out: Inhibitory activity (EC50) against HIV-1 (IIIB strain)
From the text: a) Inhibitory Activity of the Lymphocytropic Virus Strain HIV-1 (IIIB) in the CEM-SS Cell Line.
The evaluation was done by ImQuest BioSciences, Inc. (Frederick, Md., USA). CEM-SS cells [Foley G. E. et al. Continuous Culture of Human Lymphoblasts from Peripheral Blood of a Child with Acute Leukemia. Cancer 1965, 18, 522-529] obtained through the NIH AIDS Research and Reference Reagent Program (Manassas, Va., USA) were passaged in T-75 flasks prior to use cell culture medium consisting of RPMI1640 medium (Lonza; Walkersville, Md., USA) supplemented with 10% heat inactivated fetal bovine serum (Gibco; Grand Island, N.Y.), […] L-glutamine (Lonza), […] penicillin (Lonza) and […] streptomycin (Lonza) for antiviral analysis. The CEM-SS cells were kept in RPMI 140 medium supplemented with 10% heat inactivated bovine fetal serum, 2 mM glutamine, 100 U/ml penicillin, and 100 μg/ml streptomycin.
A lymphocytropic HIV-1 IIIB strain [Popovic, M. et al. Detection, isolation, and continuous production of cytopathic retroviruses (HTLV-III) from patients with AIDS and pre-AIDS. Science. 1984, 224 (4648), 497-500] was chosen for a virus to be analyzed. The virus was obtained through the NIH AIDS Research and Reference Reagents Program and grown in CEM-SS cells to produce a stock virus pool. A pre-titrated aliquot of the virus was removed from the freezer (−80° C.) and allowed to slowly thaw to room temperature in a biological safety cabinet. The virus was diluted in a tissue culture medium so that the amount of virus added in 50 μl per well was sufficient to kill 85 to 95% of the cells 6 days after infection. HIV-1 IIIB was grown and titrated in CEM-SS cells. The inhibitory effect of […] was evaluated in CEM-SS cells as described earlier [Nara, P. L. at al. Simple, rapid, quantitative, syncytium-forming microassay for the detection of human immunodeficiency virus neutralizing antibody. AIDS Res. Hum. Retroviruses 1987, 3, 283-302.] in microtiter plate anti-HIV assays to quantitatively assess the ability of a compound to inhibit HIV-induced cell death. Quantification was carried out using 2,3-bis-(2-methoxy-4-nitro-5-[…])-(2H)-tetrazolium-5-carboxanilide (XTT) tetrazolium, which is metabolized to a stained formazan product through viable […] The compounds given in Table 1 were dissolved at 10 μM in DMSO and stored at −20° C.
Test materials were evaluated using antiviral assays in triplicate in concentrations of 30 and 10 nM. The compounds shown in table 1 were dissolved at 10 μM in DMSO and stored at −20° C. […] Sixty nanomolar concentrations of each compound (2 times that of the test concentration in the well) were prepared by diluting 10 μM DMSO stock 1:100 in cell culture medium (10 μl of compound added to 990 μl of the medium) followed by 1:10 dilution (10 μl of the compound was added to 90 μl of the medium), then 6 μl was added to 994 μl of the medium; […] μl was added to a 96-well microtiter plate in triplicate to ensure efficacy and one colorimetric well. Twenty nanomolar concentrations of each compound (twice as much as the test concentration in the well) were prepared by diluting 10 μM DMSO with the original 1:100 in cell culture medium (10 μl of the compound added to 990 μl of the medium) followed by diluting […] (10 μl of the compound was added to 900 μl of the medium), then 20 μl was added to 980 μl of the medium; 100 μl was added to a 96-well microtiter plate in triplicate to ensure efficacy and one colorimetric well.
Azidothymidine (AZT) was purchased from Sigma Aldrich (USA) and evaluated as a positive control compound in an antiviral assay using a six-concentration reaction curve on each assay plate.
Test compounds were initially evaluated for HIV-1 IIIB strain in CEM-SS cells at test concentrations of 30 and 10 nM. […]

SMILES | EC50
C[C@H]1CO[C@@H]2Cn3cc(C(=O)NCc4nc5ccc(Cl)cc5o4)c(=O)c(O)c3C(=O)N12 [Compound 1.1.39, (3S,11aR)-6-hydroxy-3-methyl-N-[(6-chloro-1,3-benzoxazol-2-yl)methyl]-5,7-dioxo-2,3,5,7,11,11a-hexahydro[1,3]oxazolo[3,2-a]pyrido[1,2-d]pyrazine-8-carboxamide] | 2 to 10 nM
C[C@H]1CO[C@@]23CCC[C@@H]2n2cc(C(=O)NCc4c(F)cc(F)nc4F)c(=O)c(O)c2C(=O)N13 [Compound 2.2.3, (3aS,6S,13aS)-9-hydroxy-6-methyl-N-[(2,4,6-trifluoropyridin-3-yl)methyl]-8,10-dioxo-1,2,3,5,6,8,10,13a-octahydrocyclopenta[b][1,3]oxazolo[3,2-a]pyrido[1,2-d]pyrazine-11-carboxamide] | 2 to 10 nM
C[C@H]1CO[C@@H]2Cn3cc(C(=O)NCc4cc5c(cc4Br)OCO5)c(=O)c(O)c3C(=O)N12 [Compound 1.1.35, (3S,11aR)-N-[(6-bromo-1,3-benzodioxol-5-yl)methyl]-6-hydroxy-3-methyl-5,7-dioxo-2,3,5,7,11,11a-hexahydro[1,3]oxazolo[3,2-a]pyrido[1,2-d]pyrazine-8-carboxamide] | < 2 nM
Cc1nn2cc(CNC(=O)c3cn4c(c(O)c3=O)C(=O)N3[C@@H](C)CO[C@@H]3C4)nc2s1 [Compound 1.1.30, (3S,11aR)-6-hydroxy-3-methyl-N-[(2-methylimidazo[2,1-b][1,3,4]thiadiazol-6-yl)methyl]-5,7-dioxo-2,3,5,7,11,11a-hexahydro[1,3]oxazolo[3,2-a]pyrido[1,2-d]pyrazine-8-carboxamide] | > 30 nM
C[C@@H]1CO[C@@]23CCC[C@@H]2n2cc(C(=O)NCc4ccc(F)nc4F)c(=O)c(O)c2C(=O)N13 [Compound 2.1.1, (3aS,6R,13aS)-9-hydroxy-N-[(2,6-difluoropyridin-3-yl)methyl]-6-methyl-8,10-dioxo-1,2,3,5,6,8,10,13a-octahydrocyclopenta[b][1,3]oxazolo[3,2-a]pyrido[1,2-d]pyrazine-11-carboxamide] | 2 to 10 nM
C[C@H]1CO[C@@H]2Cn3cc(C(=O)NCc4ccnc5ccccc45)c(=O)c(O)c3C(=O)N12 [Compound 1.1.65, (3S,11aR)-6-hydroxy-3-methyl-N-(quinolin-4-ylmethyl)-5,7-dioxo-2,3,5,7,11,11a-hexahydro[1,3]oxazolo[3,2-a]pyrido[1,2-d]pyrazine-8-carboxamide] | < 2 nM
C[C@H]1CO[C@@]23CCC[C@@H]2n2cc(C(=O)NCc4ccc(F)nc4F)c(=O)c(O)c2C(=O)N13 [Compound 2.2.1, (3aS,6S,13aS)-9-hydroxy-N-[(2,6-difluoropyridin-3-yl)methyl]-6-methyl-8,10-dioxo-1,2,3,5,6,8,10,13a-octahydrocyclopenta[b][1,3]oxazolo[3,2-a]pyrido[1,2-d]pyrazine-11-carboxamide] | ~10 nM
C[C@H]1CO[C@@H]2Cn3cc(C(=O)NCc4cnccn4)c(=O)c(O)c3C(=O)N12 [Compound 1.1.27, (3S,11aR)-6-hydroxy-3-methyl-N-(pyrazin-2-ylmethyl)-5,7-dioxo-2,3,5,7,11,11a-hexahydro[1,3]oxazolo[3,2-a]pyrido[1,2-d]pyrazine-8-carboxamide] | > 30 nM
C[C@H]1CO[C@@H]2Cn3cc(C(=O)NCc4cnc5ccccn45)c(=O)c(O)c3C(=O)N12 [Compound 1.1.56, (3S,11aR)-6-hydroxy-N-(imidazo[1,2-a]pyridin-3-ylmethyl)-3-methyl-5,7-dioxo-2,3,5,7,11,11a-hexahydro[1,3]oxazolo[3,2-a]pyrido[1,2-d]pyrazine-8-carboxamide] | > 30 nM
C[C@H]1CO[C@@H]2Cn3cc(C(=O)NCc4nnc5ccc(Cl)nn45)c(=O)c(O)c3C(=O)N12 [Compound 1.1.60, (3S,11aR)-6-hydroxy-3-methyl-N-[(6-chloro[1,2,4]triazolo[4,3-b]pyridazin-3-yl)methyl]-5,7-dioxo-2,3,5,7,11,11a-hexahydro[1,3]oxazolo[3,2-a]pyrido[1,2-d]pyrazine-8-carboxamide] | 10 to 30 nM
C[C@H]1CO[C@@H]2Cn3cc(C(=O)NCc4nc5ccc(Cl)cc5n4C)c(=O)c(O)c3C(=O)N12 [Compound 1.1.43, (3S,11aR)-6-hydroxy-3-methyl-N-[(1-methyl-6-chlorobenzimidazol-2-yl)methyl]-5,7-dioxo-2,3,5,7,11,11a-hexahydro[1,3]oxazolo[3,2-a]pyrido[1,2-d]pyrazine-8-carboxamide] | > 30 nM
O=C(NCc1c(F)cc(F)nc1F)c1cn2c(c(O)c1=O)C(=O)N1[C@H]3CC[C@H](C3)O[C@@H]1C2 [Compound 1.3.2, (2R,5S,13aR)-8-hydroxy-N-[(2,4,6-trifluoropyridin-3-yl)methyl]-7,9-dioxo-2,3,4,5,7,9,13,13a-octahydro-2,5-methanopyrido[1′,2′:4,5]pyrazino[2,1-b][1,3]oxazepine-10-carboxamide] | 2 to 10 nM
C[C@H]1CO[C@@H]2Cn3cc(C(=O)NCc4ccc5[nH]c(=O)[nH]c5c4)c(=O)c(O)c3C(=O)N12 [Compound 1.1.46, (3S,11aR)-6-hydroxy-N-[(2-oxo-2,3-dihydro-1H-benzimidazol-5-yl)methyl]-3-methyl-5,7-dioxo-2,3,5,7,11,11a-hexahydro[1,3]oxazolo[3,2-a]pyrido[1,2-d]pyrazine-8-carboxamide] | > 30 nM
C[C@H]1CO[C@@H]2Cn3cc(C(=O)NCc4cccc5ncccc45)c(=O)c(O)c3C(=O)N12 [Compound 1.1.52, (3S,11aR)-6-hydroxy-3-methyl-N-(quinolin-5-ylmethyl)-5,7-dioxo-2,3,5,7,11,11a-hexahydro[1,3]oxazolo[3,2-a]pyrido[1,2-d]pyrazine-8-carboxamide] | ~10 nM
CC(C)n1c(CNC(=O)c2cn3c(c(O)c2=O)C(=O)N2[C@@H](C)CO[C@@H]2C3)nc2ccccc21 [Compound 1.1.44, (3S,11aR)-6-hydroxy-3-methyl-N-{[1-isopropyl-1H-benzimidazol-2-yl]methyl}-5,7-dioxo-2,3,5,7,11,11a-hexahydro[1,3]oxazolo[3,2-a]pyrido[1,2-d]pyrazine-8-carboxamide] | > 30 nM
